Test results published in paper PMC3942423 (Nature chemical biology, 2009).

Tests used:
[1] = system: Bt3990 E533A variant; assay: kinetics of enzyme variant on DNP-Man; type: biochemical, Bacteroides thetaiotaomicron; settings: E533A variant of Bt3990, activated aryl mannoside
[2] = target: Bt3990 E585A (Bacteroides thetaiotaomicron, UniProt Q8A0N1, E585A); assay: kinetics of enzyme variant; type: biochemical; settings: E585A of Bt3990, activated substrate
[3] = target: T1, Bt3990 (Bacteroides thetaiotaomicron, UniProt Q8A0N1); assay: inhibition studies; type: biochemical
T1 sequence (Q8A0N1 20-755): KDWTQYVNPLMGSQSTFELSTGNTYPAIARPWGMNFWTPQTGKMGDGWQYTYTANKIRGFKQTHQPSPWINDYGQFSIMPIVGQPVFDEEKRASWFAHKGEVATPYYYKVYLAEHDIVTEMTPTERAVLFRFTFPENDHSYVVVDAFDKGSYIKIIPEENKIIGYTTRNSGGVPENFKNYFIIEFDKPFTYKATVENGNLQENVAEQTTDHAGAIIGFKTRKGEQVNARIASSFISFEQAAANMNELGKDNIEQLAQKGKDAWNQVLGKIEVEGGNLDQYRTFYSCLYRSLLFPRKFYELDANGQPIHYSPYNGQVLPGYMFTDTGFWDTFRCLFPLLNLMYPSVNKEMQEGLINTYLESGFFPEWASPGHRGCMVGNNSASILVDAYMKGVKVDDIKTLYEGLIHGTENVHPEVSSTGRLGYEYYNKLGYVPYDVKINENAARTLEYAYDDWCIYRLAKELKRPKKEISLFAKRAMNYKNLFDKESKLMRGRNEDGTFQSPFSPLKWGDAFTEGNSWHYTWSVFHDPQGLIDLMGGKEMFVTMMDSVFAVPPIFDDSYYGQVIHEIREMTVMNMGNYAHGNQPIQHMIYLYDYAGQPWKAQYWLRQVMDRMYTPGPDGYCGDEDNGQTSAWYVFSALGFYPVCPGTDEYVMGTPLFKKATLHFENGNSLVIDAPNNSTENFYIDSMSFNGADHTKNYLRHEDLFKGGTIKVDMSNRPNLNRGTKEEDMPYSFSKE

| Compound | kcat/Km relative to the wild-type enzyme [1] [%] | change of kcat/Km [2] | Ki [3] [µM] |
| --- | --- | --- | --- |
| O=[N+]([O-])c1ccc(O[C@H]2O[C@H](CO)[C@@H](O)[C@H](O)[C@@H]2O)c([N+](=O)[O-])c1 [DNP-Man] | 370 | increased | – |
| OC[C@@H]1[C@@H](O)[C@H](O)[C@H](O)c2nccn21 [mannoimidazole] | – | – | 140 |
